Tested on: HIF‐1α transcriptional activity
Assay: dual‐luciferase assay (HRE‐Firefly Luciferase / renilla) of HIF‐1α transcriptional activity in HEK293T cells
Assay type: cell-based, human
Conditions: Homo sapiens, HEK-293T, mean ± s.d. (n = 3); for inhibition at 10 µM: incubation 24 h, HEK293T, read-out: Inhibition rate [%] @ 10 µM; for IC50: HEK293T dual‐luciferase
Excerpt: To screen HIF‐1α inhibitors in a robust cell‐based assay, we optimized the dual‐luciferase assay with pLenti‐HIF‐1αP2A (P402A and P564A) instead of pLenti‐HIF‐1α in order to ensure the expression of HIF‐1α under normoxia condition. In the cell‐based assay, HEK293T cells were co‐transfected with pLenti‐HIF‐1αP2A, renilla, and hypoxia‐responsive element (HRE)‐Firefly Luciferase (Figure S1, Supporting Information). […] Three compounds were selected as the positive controls including two inhibitors (PX‐478 2HCl and BAY 87‐2243) and an activator (BAY 85‐3934) in the screening assay.
HEK293T cells were stably transfected with reporter plasmids pGMLV‐HRE‐LUC‐puromycin, pMSCV‐renilla‐hygromycin, and pLenti‐HIF‐1αP2A‐neomycin. Stable cell line constructed above, 293‐HIF‐1αP2A‐HRE‐Fluc‐Rluc, were seeded in 384‐well plates and cultured in DMEM with 10% FBS. The following day, the cells were pretreated with indicated chemical compounds from the National Compound Library of the Shanghai Institute of Materia Medica, Chinese Academy of Sciences by Mosquito HTS. The plate was then placed in an incubator chamber and incubated at 37 °C for 24 h. The ratio of firefly/renilla luciferase activity was determined by using the Envision (PerkinElmer).
Stable cell line 293‐HRE‐Fluc‐Rluc expressed luciferase and renilla or HEK293T cells transfected with indicated plasmids (pGL3‐HRE‐luciferase and pSV40‐renilla) were seeded in a 96‐well plate. The cells were co‐incubated with indicated compounds for 24 h and luciferase activities were detected in Microplate Reader (BioTek SYNEGRY H1) using the Dual Luciferase Reporter Assay System Kit (Promega, USA E1910) according to the manufacturer's instruction. The relative Luc activity was normalized by renilla activity. Three independent experiments were performed, and the calculated means and SDs are presented.

SMILES | inhibition at 10 µM [%] | IC50 [µM]
O=C(Nc1ccc(C23CC4CC(CC(C4)C2)C3)cc1)c1ccccc1C(F)(F)F [1‐3ad, N‐(4‐((3r,5r,7r)‐Adamantan‐1‐yl)Phenyl)−2‐(Trifluoromethyl)Benzamide] | 31.3 ± 3.3 | –
O=C(Nc1ccc(C23CC4CC(CC(C4)C2)C3)cc1)c1cccc(C(F)(F)F)c1 [1‐3ae, N‐(4‐((3r,5r,7r)‐Adamantan‐1‐yl)Phenyl)−3‐(Trifluoromethyl)Nenzamide] | 20.2 ± 1.5 | –
O=C(Nc1ccc(C23CC4CC(CC(C4)C2)C3)cc1)c1ccc(C(F)(F)F)cc1 [1‐3af, N‐(4‐((3r,5r,7r)‐Adamantan‐1‐yl)Phenyl)−4‐(Trifluoromethyl)Benzamide] | 37.9 ± 0.7 | –
O=C(Nc1ccc(C23CC4CC(CC(C4)C2)C3)cc1)c1ccc(N2CCOCC2)cc1 [1‐3ag, N‐(4‐((3r,5r,7r)‐Adamantan‐1‐yl)Phenyl)−4‐Morpholinobenzamide] | 41.6 ± 8.9 | –
O=C(Nc1ccc(C23CC4CC(CC(C4)C2)C3)cc1)c1ccc(N2CCCC2)cc1 [1‐3ah, N‐(4‐((3r,5r,7r)‐Adamantan‐1‐yl)Phenyl)−4‐(Pyrrolidin‐1‐yl)Benzamide] | 66.5 ± 0.9 | –
CCCCCCOc1ccccc1C(=O)Nc1ccc(C23CC4CC(CC(C4)C2)C3)cc1 [1‐3ai, N‐(4‐((3r,5r,7r)‐Adamantan‐1‐yl)Phenyl)−2‐(Hexyloxy)Benzamide] | 28.2 ± 5.5 | –
CCCCCCOc1cccc(C(=O)Nc2ccc(C34CC5CC(CC(C5)C3)C4)cc2)c1 [1‐3aj, N‐(4‐((3r,5r,7r)‐Adamantan‐1‐yl)Phenyl)−3‐(Hexyloxy)Benzamide] | 28.4 ± 6.9 | –
CCCCCCCCc1ccc(C(=O)Nc2ccc(C34CC5CC(CC(C5)C3)C4)cc2)cc1 [1‐3ak, N‐(4‐((1s,3s)‐Adamantan‐1‐yl)Phenyl)−4‐Octylbenzamide] | 32.5 ± 7.2 | –
O=C(CCCCBr)Nc1cccc(C(=O)Nc2ccc(C34CC5CC(CC(C5)C3)C4)cc2)c1 [1‐3al, N‐(4‐((1s,3s)‐Adamantan‐1‐yl)Phenyl)−3‐(5‐Bromopentanamido)Benzamide] | 89.5 ± 1.1 | 1 ± 0.1
CN1CCN(CCCCC(=O)Nc2cccc(C(=O)Nc3ccc(C45CC6CC(CC(C6)C4)C5)cc3)c2)CC1 [1‐3am, N‐(4‐((1s,3s)‐Adamantan‐1‐yl)Phenyl)−3‐(5‐(4‐Methylpiperazin‐1‐yl)Pentanamido)Benzamide] | 86.4 ± 0.9 | 1.3 ± 0.2
O=C(CCCCN1CCOCC1)Nc1cccc(C(=O)Nc2ccc(C34CC5CC(CC(C5)C3)C4)cc2)c1 [1‐3an, N‐(4‐((1s,3s)‐Adamantan‐1‐yl)Phenyl)−3‐(5‐Morpholinopentanamido)Benzamide] | 93.4 ± 0.5 | 0.37 ± 0.04
O=C(CCCCBr)Nc1ccc(C(=O)Nc2ccc(C34CC5CC(CC(C5)C3)C4)cc2)cc1 [1‐3ao, N‐(4‐((3r,5r,7r)‐Adamantan‐1‐yl)Phenyl)−4‐(5‐Bromopentanamido)Benzamide] | 82.9 ± 2.4 | 2.3 ± 0.5
CN1CCN(CCCCC(=O)Nc2ccc(C(=O)Nc3ccc(C45CC6CC(CC(C6)C4)C5)cc3)cc2)CC1 [1‐3ap, N‐(4‐((3r,5r,7r)‐Adamantan‐1‐yl)Phenyl)−4‐(5‐(4‐Methylpiperazin‐1‐yl)Pentanamido)Benzamide] | 88.8 ± 0.2 | 1.4 ± 0.5
O=C(CCCCN1CCOCC1)Nc1ccc(C(=O)Nc2ccc(C34CC5CC(CC(C5)C3)C4)cc2)cc1 [1‐3aq, N‐(4‐((3r,5r,7r)‐Adamantan‐1‐yl)Phenyl)−4‐(5‐Morpholinopentanamido)Benzamide] | 69.5 ± 0.5 | –
CN(C)CCCC(=O)Nc1cccc(C(=O)Nc2ccc(C34CC5CC(CC(C5)C3)C4)cc2)c1 [1‐3ar, N‐(4‐((3r,5r,7r)‐Adamantan‐1‐yl)Phenyl)−3‐(4‐(Dimethylamino)Butanamido)Benzamide] | 79.4 ± 1.8 | 2.1 ± 0.4
C[N+](C)(C)CCCC(=O)Nc1cccc(C(=O)Nc2ccc(C34CC5CC(CC(C5)C3)C4)cc2)c1 [1‐3as, 4‐((3‐((4‐((3r,5r,7r)‐Adamantan‐1‐yl)Phenyl)Carbamoyl)Phenyl)Amino)‐N,N,N‐Trimethyl‐4‐Oxobutan‐1‐Aminium] | 76.4 ± 1.3 | 2.5 ± 0.7
CN(C)CCCC(=O)Nc1ccc(C(=O)Nc2ccc(C34CC5CC(CC(C5)C3)C4)cc2)cc1 [1‐3at, N‐(4‐((3r,5r,7r)‐Adamantan‐1‐yl)Phenyl)−4‐(4‐(Dimethylamino)Butanamido)Benzamide] | 90 ± 1.7 | 0.94 ± 0.02
O=C(Nc1ccc(C23CC4CC(CC(C4)C2)C3)cc1)c1ccccc1Cl [1‐3b, N‐(4‐((3r,5r,7r)‐Adamantan‐1‐yl)Phenyl)−2‐Chlorobenzamide] | 58.4 ± 1.5 | –
O=C(Nc1ccc(C23CC4CC(CC(C4)C2)C3)cc1)c1ccc(Cl)cc1 [1‐3c, N‐(4‐((3r,5r,7r)‐Adamantan‐1‐yl)Phenyl)−4‐Chlorobenzamide] | 63.4 ± 5.4 | –

SMILES | inhibition at 10 µM [%] | IC50 [µM]
O=C(Nc1ccc(C23CC4CC(CC(C4)C2)C3)cc1)c1ccccc1Br [1‐3d, N‐(4‐((3r,5r,7r)‐Adamantan‐1‐yl)Phenyl)−2‐Bromobenzamide] | 52.3 ± 3.1 | –
O=C(Nc1ccc(C23CC4CC(CC(C4)C2)C3)cc1)c1cccc(Br)c1 [1‐3e, N‐(4‐((3r,5r,7r)‐Adamantan‐1‐yl)Phenyl)−3‐Bromobenzamide] | 86.3 ± 0.2 | 1.4 ± 0.3
O=C(Nc1ccc(C23CC4CC(CC(C4)C2)C3)cc1)c1ccc(Br)cc1 [1‐3f, N‐(4‐((3r,5r,7r)‐Adamantan‐1‐yl)Phenyl)−4‐Bromobenzamide] | 67.1 ± 5.1 | –
COc1ccccc1C(=O)Nc1ccc(C23CC4CC(CC(C4)C2)C3)cc1 [1‐3g, N‐(4‐((3r,5r,7r)‐Adamantan‐1‐yl)Phenyl)−2‐Methoxybenzamide] | 40.2 ± 2.1 | –
COc1cccc(C(=O)Nc2ccc(C34CC5CC(CC(C5)C3)C4)cc2)c1 [1‐3h, N‐(4‐((3r,5r,7r)‐Adamantan‐1‐yl)Phenyl)−3‐Methoxybenzamide] | 92.1 ± 0.6 | 0.82 ± 0.13
COc1ccc(C(=O)Nc2ccc(C34CC5CC(CC(C5)C3)C4)cc2)cc1 [1‐3i, N‐(4‐((3r,5r,7r)‐Adamantan‐1‐yl)Phenyl)−4‐Methoxybenzamide] | 86 ± 1.4 | 1.6 ± 0.3
N#Cc1ccccc1C(=O)Nc1ccc(C23CC4CC(CC(C4)C2)C3)cc1 [1‐3j, N‐(4‐((3r,5r,7r)‐Adamantan‐1‐yl)Phenyl)−2‐Cyanobenzamide] | 41.8 ± 3.4 | –
N#Cc1cccc(C(=O)Nc2ccc(C34CC5CC(CC(C5)C3)C4)cc2)c1 [1‐3k, N‐(4‐((3r,5r,7r)‐Adamantan‐1‐yl)Phenyl)−3‐Cyanobenzamide] | 67.4 ± 3.8 | –
N#Cc1ccc(C(=O)Nc2ccc(C34CC5CC(CC(C5)C3)C4)cc2)cc1 [1‐3l, N‐(4‐((3r,5r,7r)‐Adamantan‐1‐yl)Phenyl)−4‐Cyanobenzamide] | 61.2 ± 5.5 | –
O=C(Nc1ccc(C23CC4CC(CC(C4)C2)C3)cc1)c1ccccc1O [1‐3m, N‐(4‐((3r,5r,7r)‐Adamantan‐1‐yl)Phenyl)−2‐Hydroxybenzamide] | 88.4 ± 0.2 | 0.51 ± 0.02
O=C(Nc1ccc(C23CC4CC(CC(C4)C2)C3)cc1)c1ccc(O)cc1 [1‐3o, N‐(4‐((3r,5r,7r)‐Adamantan‐1‐yl)Phenyl)−4‐Hydroxybenzamide] | 96.4 ± 0.2 | 0.053 ± 0.008
CC(C)(C)OC(=O)Nc1ccccc1C(=O)Nc1ccc(C23CC4CC(CC(C4)C2)C3)cc1 [1‐3p, Tert‐Butyl 2‐(2‐((4‐((3r,5r,7r)‐Adamantan‐1‐yl)Phenyl)Carbamoyl)Phenyl)Carbamate] | 40.3 ± 3.2 | –
CC(C)(C)OC(=O)Nc1cccc(C(=O)Nc2ccc(C34CC5CC(CC(C5)C3)C4)cc2)c1 [1‐3q, Tert‐Butyl (3‐((4‐((3r,5r,7r)‐Adamantan‐1‐yl)Phenyl)Carbamoyl)Phenyl)Carbamate] | 75.5 ± 0.3 | 3.5 ± 0.2
CC(C)(C)OC(=O)Nc1ccc(C(=O)Nc2ccc(C34CC5CC(CC(C5)C3)C4)cc2)cc1 [1‐3r, Tert‐Butyl (4‐((4‐((3r,5r,7r)‐Adamantan‐1‐yl)Phenyl)Carbamoyl)Phenyl)Carbamate] | 54.6 ± 1.6 | –
Nc1ccccc1C(=O)Nc1ccc(C23CC4CC(CC(C4)C2)C3)cc1 [1‐3s, N‐(4‐((3r,5r,7r)‐Adamantan‐1‐yl)Phenyl)−2‐Aminobenzamide] | 90.4 ± 1.7 | 0.54 ± 0.02
Nc1cccc(C(=O)Nc2ccc(C34CC5CC(CC(C5)C3)C4)cc2)c1 [1‐3t, N‐(4‐((3r,5r,7r)‐Adamantan‐1‐yl)Phenyl)−3‐Aminobenzamide] | 97.3 ± 0.4 | 0.23 ± 0.03
Nc1ccc(C(=O)Nc2ccc(C34CC5CC(CC(C5)C3)C4)cc2)cc1 [1‐3u, N‐(4‐((3r,5r,7r)‐Adamantan‐1‐yl)Phenyl)−4‐Aminobenzamide] | 98.4 ± 0.1 | 0.11 ± 0.01
CC(=O)Nc1ccccc1C(=O)Nc1ccc(C23CC4CC(CC(C4)C2)C3)cc1 [1‐3v, 2‐Acetamido‐N‐(4‐((3r,5r,7r)‐Adamantan‐1‐yl)Phenyl)Benzamide] | 18.4 ± 2.2 | –

From publication PMC10477886, “Adamantaniline Derivatives Target ATP5B to Inhibit Translation of Hypoxia Inducible Factor‐1α” (Advanced Science, 2023)
